Results on 25 compounds are retold here after patent US9896418B2, “Aryl ethers and uses thereof” (Peloton Therapeutics, Inc., priority 2013, dated 2018).

The test system of this test is HIF-2α HIS TAG-PASB Domain. As to the kind of experiment: HIF-2α Scintillation Proximity Assay (SPA). In kind it is binding. The protocol: The percent inhibition was determined and IC50 values were calculated using the Dotmatics system based on the following equation: % inhibition=[(high control−sample)/(high control−low control)]×100.
On the technique in general: Scintillation proximity formats need no separation of bound from free tracer.

For the compound `CS(=O)(=O)c1ccc(Oc2cncc(F)c2)c2c1[C@H](O)C(F)(F)[C@H]2F` [Compound 330, (1S,3S)-2,2,3-trifluoro-4-((5-fluoropyridin-3-yl)oxy)-7-(methylsulfonyl)-2,3-dihydro-1H-inden-1-ol], the IC50 – broadly, the midpoint of a concentration-inhibition curve – was determined as 2.09 µM.
Next, `CS(=O)(=O)c1ccc(Oc2cncc(Cl)c2)c2c1[C@H](O)C(F)(F)[C@@H]2F` [Compound 331, (1S,3R)-4-((5-chloropyridin-3-yl)oxy)-2,2,3-trifluoro-7-(methylsulfonyl)-2,3-dihydro-1H-inden-1-ol]: 0.007 µM; `CS(=O)(=O)c1ccc(Oc2cncc(Cl)c2)c2c1[C@H](O)C(F)(F)[C@H]2F` [Compound 332, (1S,3S)-4-((5-chloropyridin-3-yl)oxy)-2,2,3-trifluoro-7-(methylsulfonyl)-2,3-dihydro-1H-inden-1-ol]: 2.33 µM.
The value for `CS(=O)(=O)c1ccc(Oc2cncc(C#N)c2)c2c1[C@H](O)[C@H](F)[C@@H]2F` [Compound 333, 5-(((1S,2S,3R)-2,3-difluoro-1-hydroxy-7-(methylsulfonyl)-2,3-dihydro-1H-inden-4-yl)oxy)nicotinonitrile] was 0.074 µM; that for `N#Cc1cc(F)cc(Oc2ccc(S(N)(=O)=O)c3c2C[C@@H](F)[C@H]3O)c1` [Compound 334, (2R,3S)-7-(3-cyano-5-fluoro-phenoxy)-2-fluoro-3-hydroxy-indane-4-sulfonamide] was 0.073 µM; that for `N#Cc1cc(F)cc(Oc2ccc(S(N)(=O)=O)c3c2[C@@H](O)C(F)(F)[C@H]3O)c1` [Compound 337, (1R,3S)-7-(3-cyano-5-fluoro-phenoxy)-2,2-difluoro-1,3-dihydroxy-indane-4-sulfonamide] was 3.67 µM.
Next, `N#Cc1cncc(Oc2ccc(S(N)(=O)=O)c3c2[C@@H](F)C(F)(F)[C@H]3O)c1` [Compound 340, (1R,3S)-7-[(5-cyano-3-pyridyl)oxy]-1,2,2-trifluoro-3-hydroxy-indane-4-sulfonamide]: 0.024 µM.
For `NS(=O)(=O)c1ccc(Oc2cncc(F)c2)c2c1[C@H](O)C(F)(F)[C@@H]2F` [Compound 341, (1R,3S)-1,2,2-trifluoro-7-[(5-fluoro-3-pyridyl)oxy]-3-hydroxy-indane-4-sulfonamide], half-maximal inhibition (IC50) was put at 0.018 µM.
Next, `CS(=O)(=O)c1ccc(Oc2cncc(C#N)c2)c2c1[C@H](O)C(F)(F)[C@@H]2F` [Compound 342, 5-(((1S,3R)-2,2,3-trifluoro-1-hydroxy-7-(methylsulfonyl)-2,3-dihydro-1H-inden-4-yl)oxy)nicotinonitrile]: 0.04 µM.
`CS(=O)(=O)c1ccc(Oc2cncc(C#N)c2)c2c1[C@H](O)C(F)(F)[C@H]2F` [Compound 343, 5-(((1S,3S)-2,2,3-trifluoro-1-hydroxy-7-(methylsulfonyl)-2,3-dihydro-1H-inden-4-yl)oxy)nicotinonitrile] yielded an IC50 of 23.9 µM.
For `N#Cc1cncc(Oc2ccc(S(=O)(=O)CF)c3c2[C@@H](F)C(F)(F)[C@H]3O)c1` [Compound 344, 5-(((1S,3R)-2,2,3-trifluoro-7-((fluoromethyl)sulfonyl)-1-hydroxy-2,3-dihydro-1H-inden-4-yl)oxy)nicotinonitrile], the IC50 was 0.0067 µM.
Regarding `N#Cc1cncc(Oc2ccc(S(=O)(=O)CF)c3c2[C@H](F)C(F)(F)[C@H]3O)c1` [Compound 345, 5-(((1S,3S)-2,2,3-trifluoro-7-((fluoromethyl)sulfonyl)-1-hydroxy-2,3-dihydro-1H-inden-4-yl)oxy)nicotinonitrile], half-maximal inhibition (IC50) required 2.18 µM.
In the case of `CS(=O)(=O)c1ccc(Oc2cc(F)cc(C#N)c2)c2c1[C@H](N)C(F)(F)[C@@H]2F` [Compound 346], it took 0.515 µM to reach half-maximal inhibition (IC50).
Next, `N#Cc1cncc(Oc2ccc(S(=O)(=O)C(F)F)c3c2CC(F)(F)[C@H]3O)c1` [Example 27, (S)-5-((7-((Difluoromethyl)sulfonyl)-2,2-difluoro-1-hydroxy-2,3-dihydro-1H-inden-4-yl)oxy)nicotinonitrile]: 0.25 µM; `O=S(=O)(c1ccc(Oc2cc(F)cc(F)c2)c2c1[C@H](O)CC2)C(F)(F)F` [Example 55, (R)-4-(3,5-Difluorophenoxy)-7-((trifluoromethyl)sulfonyl)-2,3-dihydro-1H-inden-1-ol]: below 0.005 µM.
`O[C@@H]1CCc2c(Oc3cc(F)cc(F)c3)ccc(C(F)(F)F)c21` [Example 58, (R)-4-(3,5-Difluorophenoxy)-7-(trifluoromethyl)-2,3-dihydro-1H-inden-1-ol] gave an IC50 below 0.005 µM.
`CS(=O)(=O)c1ccc(Oc2cncc(Cl)c2)c2c1[C@H](O)C(F)(F)C2` [Example 115, (S)-4-((5-Chloropyridin-3-yl)oxy)-2,2-difluoro-7-(methylsulfonyl)-2,3-dihydro-1H-inden-1-ol] displayed an IC50 of 0.35 µM.
Next, `CS(=O)(=O)c1ccc(Oc2cc(F)cc(Cl)c2)c2c1[C@H](O)C(F)(F)C2` [Example 160, (1S)-4-(3-Chloro-5-fluoro-phenoxy)-2,2-difluoro-7-methylsulfonyl-indan-1-ol]: below 0.005 µM; `N#Cc1cc(F)cc(Oc2ccc(S(=O)(=O)C(F)(F)F)c3c2CC(F)(F)[C@H]3O)c1` [Example 185, (S)-3-((2,2-Difluoro-1-hydroxy-7-((trifluoromethyl)sulfonyl)-2,3-dihydro-1H-inden-4-yl)oxy)-5-fluorobenzonitrile]: below 0.005 µM; `O=S(=O)(c1ccc(Oc2cncc(Cl)c2)c2c1[C@H](O)C(F)(F)C2)C(F)(F)F` [Example 186, (S)-4-((5-Chloropyridin-3-yl)oxy)-2,2-difluoro-7-((trifluoromethyl)sulfonyl)-2,3-dihydro-1H-inden-1-ol]: below 0.005 µM.
`O=S(=O)(CF)c1ccc(Oc2cncc(Cl)c2)c2c1[C@H](O)C(F)(F)C2` [Example 187, (S)-4-((5-Chloropyridin-3-yl)oxy)-2,2-difluoro-7-((fluoromethyl)sulfonyl)-2,3-dihydro-1H-inden-1-ol]: half-maximal inhibition (IC50) required 0.079 µM.
In turn, `CS(=O)(=NC#N)c1ccc(Oc2cc(F)cc(F)c2)c2c1C(O)C(F)(F)C2` (stereo not shown) [Example 191, N-((7-(3,5-difluorophenoxy)-2,2-difluoro-3-hydroxy-2,3-dihydro-1H-inden-4-yl)(methyl)(oxo)-λ^6-sulfanylidene)cyanamide] returned an IC50 below 0.005 µM.
`CS(=N)(=O)c1ccc(Oc2cc(F)cc(F)c2)c2c1[C@H](O)C(F)(F)C2` (stereo partly drawn) [Example 192, ((S)-7-(3,5-Difluorophenoxy)-2,2-difluoro-3-hydroxy-2,3-dihydro-1H-inden-4-yl)(imino)(methyl)-λ^6-sulfanone] returned a half-inhibitory concentration (IC50) of 0.18 µM.
`O=S(=O)(c1ccc(Oc2ccc(F)c(Cl)c2)c2c1[C@H](O)C(F)(F)C2)C(F)(F)F` [Example 221, (S)-4-(3-Chloro-4-fluorophenoxy)-2,2-difluoro-7-((trifluoromethyl)sulfonyl)-2,3-dihydro-1H-inden-1-ol] gave an IC50 of 0.029 µM.
With `N#Cc1cncc(Oc2ccc(S(=O)(=O)C(F)(F)F)c3c2C[C@@H](F)[C@H]3O)c1` [Example 225, 5-(((1S,2R)-2-Fluoro-1-hydroxy-7-((trifluoromethyl)sulfonyl)-2,3-dihydro-1H-inden-4-yl)oxy)nicotinonitrile], the IC50 is below 0.005 µM.
